Measured values: ChEMBL document CHEMBL4619796, “Discovery of 3-Quinazolin-4(3H)-on-3-yl-2,N-dimethylpropanamides as Orally Active and Selective PI3Kα Inhibitors” (ACS Med Chem Lett, 2020)

What was measured:
[1] = target: Phosphatidylinositol 4,5-bisphosphate 3-kinase catalytic subunit alpha isoform (Homo sapiens, UniProt P42336); assay: Inhibition of PI3Kalpha (unknown origin) using PIP2:3PS peptide as substrate preincubated for 15 mins followed by ATP addition at Km concentration and further incubated for 150 mins by ADP-Glo assay
Phosphatidylinositol 4,5-bisphosphate 3-kinase catalytic subunit alpha isoform, sequence (P42336 whole entry, canonical isoform): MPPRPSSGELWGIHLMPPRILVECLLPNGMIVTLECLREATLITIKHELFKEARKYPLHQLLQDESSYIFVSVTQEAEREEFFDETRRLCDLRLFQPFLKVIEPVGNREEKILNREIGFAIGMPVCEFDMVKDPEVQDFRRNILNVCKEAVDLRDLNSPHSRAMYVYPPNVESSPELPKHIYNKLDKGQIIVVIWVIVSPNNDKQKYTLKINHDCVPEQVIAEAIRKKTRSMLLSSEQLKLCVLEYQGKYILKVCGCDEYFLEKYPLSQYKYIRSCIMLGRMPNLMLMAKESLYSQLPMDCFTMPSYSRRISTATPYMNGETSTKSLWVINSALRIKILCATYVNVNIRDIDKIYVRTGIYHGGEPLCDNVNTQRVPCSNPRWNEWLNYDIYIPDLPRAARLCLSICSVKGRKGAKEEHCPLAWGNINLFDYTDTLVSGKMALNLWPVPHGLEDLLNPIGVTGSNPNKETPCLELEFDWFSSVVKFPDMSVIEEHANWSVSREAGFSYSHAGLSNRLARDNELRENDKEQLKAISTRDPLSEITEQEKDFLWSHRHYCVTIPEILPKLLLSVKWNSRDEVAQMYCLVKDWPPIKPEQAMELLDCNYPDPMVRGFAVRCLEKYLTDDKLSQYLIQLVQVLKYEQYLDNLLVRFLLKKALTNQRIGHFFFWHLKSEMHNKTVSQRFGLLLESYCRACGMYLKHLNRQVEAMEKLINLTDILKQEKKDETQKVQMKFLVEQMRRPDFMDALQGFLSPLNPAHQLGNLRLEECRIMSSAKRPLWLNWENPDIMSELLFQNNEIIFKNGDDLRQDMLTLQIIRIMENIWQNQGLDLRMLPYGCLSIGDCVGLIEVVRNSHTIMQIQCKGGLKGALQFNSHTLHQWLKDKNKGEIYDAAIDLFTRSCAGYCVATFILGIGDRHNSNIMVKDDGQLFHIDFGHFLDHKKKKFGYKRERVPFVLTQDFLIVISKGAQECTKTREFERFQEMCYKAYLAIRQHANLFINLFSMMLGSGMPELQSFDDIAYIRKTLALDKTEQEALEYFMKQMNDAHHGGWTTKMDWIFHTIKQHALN

[2] = Inhibition of PI3K in human MCF7 cells assessed as reduction in AKT phosphorylation at residue S473 incubated for 2 hrs followed by insulin addition by ELISA; format: cell-based; conditions: MCF7, 2 h
Homo sapiens [3] = organism: Homo sapiens; assay: Selectivity ratio of IC50 for PI3Kbeta (unknown origin) using PIP2:3PS peptide as substrate preincubated for 15 mins followed by ATP addition at Km concentration and further incubated for 120 mins by ADP-Glo assay to IC50 for PI3Kalpha (unknown origin) using PIP2:3PS peptide as substrate preincubated for 15 mins followed by ATP addition at Km concentration and further incubated for 150 mins by ADP-Glo assay
Homo sapiens [4] = organism: Homo sapiens; assay: Selectivity ratio of IC50 for PI3Kdelta (unknown origin) using PIP2:3PS peptide as substrate preincubated for 15 mins followed by ATP addition at Km concentration and further incubated for 120 mins by ADP-Glo assay to IC50 for PI3Kalpha (unknown origin) using PIP2:3PS peptide as substrate preincubated for 15 mins followed by ATP addition at Km concentration and further incubated for 150 mins by ADP-Glo assay
Homo sapiens [5] = organism: Homo sapiens; assay: Selectivity ratio of IC50 for PI3Kgamma (unknown origin) using PIP2:3PS peptide as substrate preincubated for 15 mins followed by ATP addition at Km concentration and further incubated for 120 mins by ADP-Glo assay to IC50 for PI3Kalpha (unknown origin) using PIP2:3PS peptide as substrate preincubated for 15 mins followed by ATP addition at Km concentration and further incubated for 150 mins by ADP-Glo assay

Row | Compound | IC50 [1] [nM] | IC50 [2] [nM] | Ratio IC50 (Homo sapiens [3]) | Ratio IC50 (Homo sapiens [4]) | Ratio IC50 (Homo sapiens [5])
1 | CCc1ncc(-c2ccc3ncn(C[C@@H](C)C(=O)NC)c(=O)c3c2)cc1NS(=O)(=O)c1ccc(F)cc1Cl | 6 | 347 | 309 | 13.8 | 14.4
2 | COc1ncc(-c2ccc3ncn(CC(N)C(N)=O)c(=O)c3c2)cc1NS(=O)(=O)c1ccc(F)cc1Cl (racemic) |  | 134 | 33.9 | 4.75 | 7.39
3 | CNC(=O)[C@@H](C)Cn1cnc2ccc(-c3cnc(OC)c(NS(=O)(=O)c4ccc(F)cc4Cl)c3)cc2c1=O | 2.3 |  |  |  | 
4 | COc1ncc(-c2ccc3ncn(CC4(C(N)=O)CC4)c(=O)c3c2)cc1NS(=O)(=O)c1ccc(F)cc1Cl |  | 39.9 | 14.4 | 0.35 | 3.61
5 | CCNC(=O)[C@H](C)Cn1cnc2ccc(-c3cnc(OC)c(NS(=O)(=O)c4ccc(F)cc4Cl)c3)cc2c1=O | 3.5 | 40.5 | 187 | 5.63 | 6.28
6 | CNC(=O)[C@H](C)Cn1cnc2ccc(-c3cnc(COC)c(NS(=O)(=O)c4ccc(F)cc4Cl)c3)cc2c1=O | > 1000 | > 1000 |  |  | 
7 | CNC(=O)[C@H](C)Cn1cnc2ccc(-c3cnc(OC(C)C)c(NS(=O)(=O)c4ccc(F)cc4Cl)c3)cc2c1=O |  | 387 |  |  | 
8 | CNC(=O)[C@H](C)Cn1cnc2ccc(-c3cnc(OC4CC4)c(NS(=O)(=O)c4ccc(F)cc4Cl)c3)cc2c1=O |  | 55.3 |  |  | 
9 | CNC(=O)[C@H](C)Cn1cnc2ccc(-c3cnc(OC)c(NS(=O)(=O)c4ccc(Cl)c(Cl)c4)c3)cc2c1=O | 10 |  | 6.62 |  | 
10 | COc1ncc(-c2ccc3ncn(CC(F)(F)C(N)=O)c(=O)c3c2)cc1NS(=O)(=O)c1ccc(F)cc1Cl | 2.7 |  | 46.6 | 2.69 | 3.15
11 | COc1ncc(-c2ccc3ncn(C[C@@H](C)C(=O)NC4COC4)c(=O)c3c2)cc1NS(=O)(=O)c1ccc(F)cc1Cl | 2.1 | 190 | 262 |  | 
12 | COc1ncc(-c2ccc3ncn(C[C@@H](C)C(=O)NC4CC4(F)F)c(=O)c3c2)cc1NS(=O)(=O)c1ccc(F)cc1Cl (stereo partly drawn) | 6.2 |  | 116 |  | 
13 | COc1ncc(-c2ccc3ncn(CC(C(N)=O)C(C)C)c(=O)c3c2)cc1NS(=O)(=O)c1ccc(F)cc1Cl (racemic) |  | 125 | 32.6 |  | 
14 | CNC(=O)[C@H](C)Cn1cnc2ccc(-c3cnc(CO)c(NS(=O)(=O)c4ccc(F)cc4Cl)c3)cc2c1=O | 30 | > 1000 | > 334 | 17.9 | 12.5
15 | COc1ncc(-c2ccc3ncn(C[C@@H](C)C(=O)NCCO)c(=O)c3c2)cc1NS(=O)(=O)c1ccc(F)cc1Cl | 1.7 | 339 | 151 | 6.8 | 6.34
16 | CNC(=O)[C@H](C)Cn1cnc2ccc(-c3cnc(OC)c(NS(=O)(=O)c4cccnc4)c3)cc2c1=O |  | > 1000 |  |  | 
17 | CNC(=O)[C@H](C)Cn1cnc2ccc(-c3cnc(OC)c(NS(=O)(=O)c4c(C)noc4C)c3)cc2c1=O | 4.3 |  | 146 | 4.52 | 10
18 | CCC(CC)NC(=O)[C@H](C)Cn1cnc2ccc(-c3cnc(OC)c(NS(=O)(=O)c4ccc(F)cc4Cl)c3)cc2c1=O | 19.6 | 373 | 259 | 3.11 | 7.92
19 | CNC(=O)[C@H](C)Cn1cnc2ccc(-c3cnc(C)c(NS(=O)(=O)c4ccc(F)cc4Cl)c3)cc2c1=O | 3 | 397 | 406 | 17 | 21

Row | Compound | IC50 [1] [nM] | IC50 [2] [nM] | Ratio IC50 (Homo sapiens [3]) | Ratio IC50 (Homo sapiens [4]) | Ratio IC50 (Homo sapiens [5])
20 | CNC(=O)[C@H](C)Cn1cnc2ccc(-c3cnc(OC)c(NS(=O)(=O)c4sccc4C)c3)cc2c1=O | 4.1 |  | 43.1 |  | 
21 | COc1ncc(-c2ccc3ncn(C[C@@H](C)C(=O)NC4CC4)c(=O)c3c2)cc1NS(=O)(=O)c1ccc(F)cc1Cl | 2.7 | 170 | 224 | 2.61 | 5.44
22 | CNC(=O)[C@H](C)Cn1cnc2ccc(-c3cnc(N)c(NS(=O)(=O)c4ccc(F)cc4Cl)c3)cc2c1=O | 19.3 | > 1000 | 283 |  | 
23 | CNC(=O)[C@H](C)Cn1cnc2ccc(-c3cnc(OC)c(NS(=O)(=O)c4cc(C(F)(F)F)cc(C(F)(F)F)c4)c3)cc2c1=O | 20.8 |  | 109 | 19.4 | 17.3
24 | COc1ncc(-c2ccc3ncn(C[C@@H](C)C(=O)NCCF)c(=O)c3c2)cc1NS(=O)(=O)c1ccc(F)cc1Cl | 2.5 | 67.4 | 162 | 7.61 | 7.41
25 | COc1ncc(-c2ccc3ncn(CCCC(N)=O)c(=O)c3c2)cc1NS(=O)(=O)c1ccc(F)cc1Cl | 1.1 | 9.43 | 30 | 1.91 | 
26 | CNC(=O)[C@H](C)Cn1cnc2ccc(-c3cnc(N(C)C)c(NS(=O)(=O)c4ccc(F)cc4Cl)c3)cc2c1=O | 8.4 |  | 59.5 |  | 
27 | CCN(CC)C(=O)[C@H](C)Cn1cnc2ccc(-c3cnc(OC)c(NS(=O)(=O)c4ccc(F)cc4Cl)c3)cc2c1=O | 25.8 |  | 5.97 | 0.63 | 1.04
28 | COc1ncc(-c2ccc3ncn(C[C@@H](C)C(=O)N4CCOCC4)c(=O)c3c2)cc1NS(=O)(=O)c1ccc(F)cc1Cl | 11.5 |  | 18.3 | 0.38 | 0.71
29 | COc1ncc(-c2ccc3ncn(CCC(N)=O)c(=O)c3c2)cc1NS(=O)(=O)c1ccc(F)cc1Cl | 1.2 | 16.8 | 59 | 3.34 | 3.94
30 | CNC(=O)C(C)Cn1cnc2ccc(-c3cnc(C(F)(F)F)c(NS(=O)(=O)c4ccc(F)cc4Cl)c3)cc2c1=O (racemic) | 0.6 | 972 | 196 |  | 
31 | COc1ncc(-c2ccc3ncn(C[C@@H](C)C(=O)N(C)C(C)C)c(=O)c3c2)cc1NS(=O)(=O)c1ccc(F)cc1Cl | 19.6 |  | 16.6 | 0.78 | 1.06
32 | COc1ncc(-c2ccc3ncn(C[C@@H](C)C(=O)NC(C)C)c(=O)c3c2)cc1NS(=O)(=O)c1ccc(F)cc1Cl | 6.9 | 61.5 | 107 | 3.41 | 9.87
33 | CNC(=O)[C@H](C)Cn1cnc2ccc(-c3cnc(OC)c(NS(=O)(=O)c4sc(C)nc4C)c3)cc2c1=O | 0.5 | 10.9 | 115 | 2.08 | 11.7
34 | CNC(=O)C(C)Cn1cnc2ccc(-c3cnc(OC(F)(F)F)c(NS(=O)(=O)c4ccc(F)cc4Cl)c3)cc2c1=O (racemic) |  | > 1000 | 94.9 |  | 
35 | CCC(Cn1cnc2ccc(-c3cnc(OC)c(NS(=O)(=O)c4ccc(F)cc4Cl)c3)cc2c1=O)C(N)=O (racemic) |  | 52.3 | 19.3 |  | 
36 | COc1ncc(-c2ccc3ncn(C[C@@H](C)C(=O)NCC(F)(F)F)c(=O)c3c2)cc1NS(=O)(=O)c1ccc(F)cc1Cl | 5.5 | 56.1 | 107 | 3.41 | 9.87
37 | CCOc1ncc(-c2ccc3ncn(C[C@@H](C)C(=O)NC)c(=O)c3c2)cc1NS(=O)(=O)c1ccc(F)cc1Cl | 13.7 | 116 | 153 |  | 
